Measurements taken from patent US5436243A, “Aminoanthraquinone derivatives to combat multidrug resistance” (priority 1993, dated 1995).
Entries after “also recorded” stand apart in the source; their conditions may differ. Read-outs that look alike come from different tables or passages of the source.

Experiments:
MCF7 Adr 10 [1] = test: 72 hour MTT proliferation assay, reversal of drug resistance in MCF7 Adr 10; type: cell-based, human; conditions: [1c] 0 μM; for IC50: Homo sapiens, NCI/ADR-RES
Experimental: (§1) In 72 hour MTT proliferation assays using the following method, compounds 1b, 1c and 1d were assessed for inhibition of Vinca alkaloid and anthracycline drug resistance in MDR MCF7. Additionally, compounds 1b and 1c were assessed for potentiation of sensitivity to Vinca alkaloid and anthracycline drugs in the parental MCF7 WT cell line.
(§2) METHOD: 5000 cells per well were plated in 100 μl of IMDM containing 10% FCS and allowed to adhere overnight. The following day the cells were treated with N-substituted 1,4-diaminoanthraquinones and exposed to graded concentrations of antineoplastic agents. 50 μl of IMDM 10% FCS containing either vehicle or N-substituted 1,4-diaminoanthraquinones at 3 times the final tested concentration was added to cells at timed intervals. The plates were incubated for 2 hours at 37° C. to allow maximal cellular accumulation of N-substituted 1,4-diaminoanthraquinones. 40 μl aliquots of IMDM 10% FCS containing either vehicle or graded concentrations of antineoplastic drugs at 5 times the final concentration were added to treatment groups. Following this addition, 10 μl of IMDM 10% FCS containing either vehicle or N-substituted 1,4-diaminoanthraquinone at 5 times the final concentration was added to each group of wells. The cells were incubated for 72 hours after treatment. At this time the viable cells in each treatment group were estimated in a colorimetric assay by adding MTT and incubating the cells at 37° C. for 3-4 hours. The media in each well was aspirated and MTT formazan was solubilized in isopropyl alcohol acidified with 0.1 N HCl. The absorbance of the solubilized formazan was quantitated using a plate reader spectrophotometer. […] The concentrations of antineoplastic drugs which inhibited proliferation by 50% (IC50's) were estimated by calculating a percentage from the ratio: antineoplastic drug treated groups/control group absorbance and plotting the dose response curve on semilog paper. The IC50 was estimated from this curve. To assess the effects of inhibition of resistance by N-substituted 1,4-diaminoanthraquinones, the percentages were calculated relative to cell groups treated with resistance modifier alone and IC50's calculated as above. A reversal factor was calculated by dividing the IC50 to the antineoplastic drug alone (Control group) by the IC50 to antineoplastic drug in cells treated with resistance modifier.

MCF7 WT [2] = test: Tumor cell clonogenic assay, MCF7 WT; type: cell-based, human; conditions: Homo sapiens, MCF7, read-out: Continuous Exposure IC50, MCF7 WT
Experimental: The tumor cell clonogenic assays measure clonal proliferation of tumor cells. In this assay, 300-500 cells are plated in 10 cm^2 wells, allowed to adhere overnight, and are treated the following day. Tumor cell colonies were counted after 10-12 days of culture. […] The IC50's are calculated as described above for the MTT proliferation assays.

MCF7 Adr 10 [3] = test: Tumor cell clonogenic assay, MCF7 ADR 10; type: cell-based, human; conditions: Homo sapiens, NCI/ADR-RES, read-out: Continuous Exposure IC50, MCF7 ADR 10
Experimental: The tumor cell clonogenic assays measure clonal proliferation of tumor cells. In this assay, 300-500 cells are plated in 10 cm^2 wells, allowed to adhere overnight, and are treated the following day. Tumor cell colonies were counted after 10-12 days of culture. The times of exposure in these experiments are similar; however, the concentrations of FCS are 20% in the CFU-GM assay and 10% in the tumor cell clonogenic assays. The IC50's are calculated as described above for the MTT proliferation assays.

PKC [4] = test: Micellar PKC screening assay; type: biochemical
From the text: The N-substituted diaminoanthraquinone, 1b, (1,4-bis-[[3'-(diethylamino)propyl]amino]anthraquinone), was identified as a PKC inhibitor in the micellar PKC screening assay and in platelets. […] Spectrophotometric analysis of 1b and lc indicated they were excellent chromophores with absorbance maxima at 648 and 600 nm in chloroform, respectively, and extinction coefficients of approximately 20,000. At these wavelengths, there was minimal absorbance by cellular components contained in the chloroform phase. These properties of 1b and 1c were utilized to determine the time course of accumulation of these compounds in MDR MCF7 Adr 10 cells.
The activities of 1a, 1b, 1c and 1d and mitoxantrone, an anthraquinone antineoplastic drug, were evaluated in vinblastine drug accumulation assays performed by the following method. […] Mitoxantrone was identified as a PKC inhibitor in miceliar PKC assays. Compound 1d (1,4-bis-[[2-(4-morpholino)ethyl]amino]anthraquinone) was only evaluated in cellular studies.

[5] = tested on: MCF7 Adr 10 human breast cancer cells; test: Vinblastine accumulation assay, MCF7 Adr 10; type: cell-based; conditions: for activity in vinblastine accumulation assay / drug accumulation: MDR MCF7
Experimental: [^3 H] vinblastine ([^3 H] VLB) was added to a final concentration of 100 nM and the cells were incubated for 2.5 hours. At this time, the cells were washed 3 times in ice cold PBS and lysed in buffer containing 0.1% Triton X-100. Net accumulation of [^3 H] vinblastine was expressed as pmol/mg protein. In [^3 H]

patients [6] = conditions: human, in vivo; cited from earlier work
MDR cell lines = conditions: literature, cited from earlier work
[7] = clinical trials; cited from earlier work
MCF7 WT [8] = test: 72 hour MTT proliferation assay, potentiation of sensitivity in MCF7 WT; type: cell-based, human
Experimental: as §1, §2

[9] = [3H] VLB binding to MCF7 WT membrane vesicles; parameters: species or system human; conditions: MCF7 WT vesicles
Experimental: METHOD: Membrane vesicles from sensitive and MDR MCF7 were prepared by nitrogen cavitation and isolated by centrifugation in discontinuous sucrose gradients. […] In the presence of 100 nM [^3 H] VLB and ATP, total and nonspecific binding of [^3 H] VLB (experimentally defined as binding in the presence of a 100 μM unlabeled VLB) was measured. Association of [^3 H] […] In contrast, association of [^3 H] […] VLB with MCF7 WT vesicles.

[10] = target: P-glycoprotein in MCF7 Adr 10 membrane vesicles (Homo sapiens, UniProt P08183)
P-glycoprotein in MCF7 Adr 10 membrane vesicles, sequence (P08183 whole entry): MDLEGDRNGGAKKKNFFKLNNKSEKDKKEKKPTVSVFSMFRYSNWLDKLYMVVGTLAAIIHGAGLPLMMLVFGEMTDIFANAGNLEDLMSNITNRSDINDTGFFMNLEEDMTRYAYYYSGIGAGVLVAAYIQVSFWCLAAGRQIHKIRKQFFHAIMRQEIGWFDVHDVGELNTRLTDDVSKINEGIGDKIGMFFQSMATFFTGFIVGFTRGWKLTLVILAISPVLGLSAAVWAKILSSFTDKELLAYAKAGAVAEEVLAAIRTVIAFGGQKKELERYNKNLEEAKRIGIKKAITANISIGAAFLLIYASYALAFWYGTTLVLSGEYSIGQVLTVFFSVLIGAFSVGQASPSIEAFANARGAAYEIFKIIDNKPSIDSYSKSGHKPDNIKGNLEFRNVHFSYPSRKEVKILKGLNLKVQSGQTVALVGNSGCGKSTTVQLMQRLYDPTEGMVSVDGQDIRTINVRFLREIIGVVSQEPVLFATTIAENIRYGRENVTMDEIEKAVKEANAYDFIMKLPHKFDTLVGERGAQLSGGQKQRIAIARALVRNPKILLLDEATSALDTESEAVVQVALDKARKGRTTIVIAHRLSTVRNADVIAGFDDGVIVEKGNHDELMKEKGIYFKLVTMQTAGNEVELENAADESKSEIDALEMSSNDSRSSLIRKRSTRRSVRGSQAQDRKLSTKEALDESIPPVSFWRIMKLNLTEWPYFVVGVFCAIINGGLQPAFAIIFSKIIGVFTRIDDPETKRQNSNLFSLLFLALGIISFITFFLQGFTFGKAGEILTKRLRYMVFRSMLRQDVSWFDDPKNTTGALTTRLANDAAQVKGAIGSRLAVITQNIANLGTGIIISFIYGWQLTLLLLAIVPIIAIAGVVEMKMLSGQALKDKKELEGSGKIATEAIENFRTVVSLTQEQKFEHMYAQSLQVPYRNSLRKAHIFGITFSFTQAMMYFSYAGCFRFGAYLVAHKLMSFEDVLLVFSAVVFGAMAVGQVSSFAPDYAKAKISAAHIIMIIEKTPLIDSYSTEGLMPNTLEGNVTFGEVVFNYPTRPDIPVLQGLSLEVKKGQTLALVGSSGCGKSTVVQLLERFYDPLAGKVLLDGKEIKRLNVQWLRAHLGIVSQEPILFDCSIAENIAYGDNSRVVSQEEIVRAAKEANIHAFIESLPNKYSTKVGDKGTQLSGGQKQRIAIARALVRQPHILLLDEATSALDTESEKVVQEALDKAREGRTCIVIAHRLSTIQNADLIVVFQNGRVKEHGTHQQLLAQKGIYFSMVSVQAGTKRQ

[11] = Partition in Bligh-Dyer extracts; type: physicochemical
Experimental: At these wavelengths, there was minimal absorbance by cellular components contained in the chloroform phase. […] METHOD: […] The monolayers were treated with 25 μM 1b or 1c and incubated at 37° C. After incubating the samples for the times indicated in FIG. 1, the monolayers were washed three times with DPBS and detached using 1 ml of Trypsin-EDTA.An aliquot of the cell suspension was counted using a Coulter Counter and a 0.8 ml aliquot was extracted in a Bligh-Dyer extraction (Bligh et at., Can. J. Biochem. 31:911-916 (1959)). The absorbance of the lower chloroform phase was measured at 648 nm and 600 nm using a spectrophotometer. The amount of 1b or 1c present in the extract was quantitated from a standard curve performed in cell extracts. The data is expressed as nmol anthraquinone/10^6 cells.

casein kinase 2 = test: Casein kinase 2 inhibition; type: biochemical
From the text: One possible explanation for stimulation of phosphorylation of P-glycoprotein and MARCKS is that 1c may activate PKC or other cellular kinases by signal transduction pathways that have not yet been identified to phosphorylate these proteins. An alternative explanation for stimulation of phosphorylation of P-glycoprotein and MARCKS is that 1c inhibits protein phosphatases.

P-glycoprotein [12] = conditions: literature; cited from earlier work
[13] = tested on: patients with tumors clinically resistant to adriamycin; conditions: cited from earlier work
PKC [14] = conditions: literature; cited from earlier work
patients [15] = conditions: cited from earlier work
P-glycoprotein [16] = conditions: cited from earlier work
P-glycoprotein [17] = conditions: intact MDR cells and MDR membrane vesicles; cited from earlier work

COc1cccc2c1C(=O)c1c(O)c3c(c(O)c1C2=O)C[C@@](O)(C(=O)CO)C[C@@H]3O[C@H]1C[C@H](N)[C@H](O)[C@H](C)O1 [ADR, reference compound]
IC50 (MCF7 Adr 10 [1]; average ± SD of 4 experiments, read-out: ADR IC50): 38000 nM
Reversal Factor (ADR) (MCF7 Adr 10 [1]): 1.0
IC50 (MCF7 WT [2]): 5.6 nM
IC50 (MCF7 Adr 10 [3]): 3400 nM

CCCCCCCCNc1ccc(NCCCCCCCC)c2c1C(=O)c1ccccc1C2=O [Compound 1a, 1,4-bis-(octylamino) anthraquinone]
PKC activity in micellar PKC screening assay (PKC [4]): PKC stimulation
activity in vinblastine accumulation assay / drug accumulation [5]: inactive; also recorded: did not show significant activity

O=C1c2ccccc2C(=O)c2c(NCCN3CCOCC3)ccc(NCCN3CCOCC3)c21 [Compound 1d, 1,4-bis-[[2-(4-morpholino)ethyl]amino]anthraquinone]
minimal effective concentration ([5]; Homo sapiens, NCI/ADR-RES, 100 nM [3H] VLB, 2.5 hours, FIGS. 2 and 3, read-out: lowest concentration which causes a doubling of basal accumulation of vinblastine): 2.5 µM
activity in vinblastine accumulation assay / drug accumulation [5]: increase vinblastine accumulation in MDR MCF7

COc1ccc(CCN(C)CCC[C@](C#N)(c2ccc(OC)c(OC)c2)C(C)C)cc1OC [D-verapamil]
toxicity in humans (patients [6]): too toxic to use at high concentrations in humans

COc1cccc2c1C(=O)c1c(O)c3c(c(O)c1C2=O)C[C@@](O)(C(C)=O)C[C@@H]3O[C@H]1C[C@H](N)[C@H](O)[C@H](C)O1 [DNR, reference compound]
IC50 (MCF7 Adr 10 [1]; average ± SD of 3 experiments, read-out: DNR IC50): 6700 nM
Reversal Factor (DNR) (MCF7 Adr 10 [1]): 1.0

OCCN1CCN(CC/C=C2\c3ccccc3Sc3ccc(C(F)(F)F)cc32)CC1 [Trans-flupenthixol]
drug accumulation and reversal of resistance in MDR cell lines (MDR cell lines): increased doxorubicin accumulation and reversed the MDR phenotype more effectively in a number of MDR cell lines than verapamil
antipsychotic potency relative to the cis isomer [7]: much less potent antipsychotic in clinical trials than the cis isomer

CC[C@]1(O)C[C@H]2CN(CCc3c([nH]c4ccccc34)[C@@](C(=O)OC)(c3cc4c(cc3OC)N(C=O)[C@H]3[C@@](O)(C(=O)OC)[C@H](OC(C)=O)[C@]5(CC)C=CCN6CC[C@]43[C@@H]65)C2)C1 [VCR, reference compound]
IC50 (MCF7 Adr 10 [1]; average ± SD of 3 experiments, read-out: VCR IC50): 3300 nM
Reversal Factor (VCR) (MCF7 Adr 10 [1]): 1.0
IC50 (MCF7 WT [8]; Homo sapiens, MCF7, read-out: VCR IC50): 1.9 nM
Reversal Factor (VCR) (MCF7 WT [8]; [1c] 0 μM, MCF7 WT): 1.0
IC50 (MCF7 WT [2]): 0.4 nM
IC50 (MCF7 Adr 10 [3]): 970 nM

CCC1(O)CC2CN(CCc3c([nH]c4ccccc34)C(C(=O)OC)(c3cc4c(cc3OC)N(C)C3C(O)(C(=O)OC)C(OC(C)=O)C5(CC)C=CCN6CCC43C65)C2)C1 (stereo not drawn) [[^3 H] VLB]
association of [3H] VLB relative to MCF7 Adr 10 [9]: approximately 15%
enhancement of [3H] VLB association by addition of ATP [10]: 2-3 fold
time to maximal association of [3H] VLB [10]: ≤ 15 min

O=C1c2c(O)ccc(O)c2C(=O)c2c(NCCNCCO)ccc(NCCNCCO)c21 [mitoxantrone, reference compound]
partition into the lower chloroform phase [11]: does not partition into the lower chloroform phase
PKC activity in micellar PKC screening assay (PKC [4]): PKC inhibitor
inhibitory activity in in vitro PKC assays relative to 1b or 1c (PKC [4]): greater inhibitory activity
activity in vinblastine accumulation assay / drug accumulation [5]: significant loss of activity; also recorded: did not show significant activity
activity in vinblastine accumulation assay / drug accumulation ([5]; listed as Mitoxantrone): does not increase drug accumulation
inhibitory activity in in vitro casein kinase 2 assays relative to 1b or 1c (casein kinase 2): greater inhibitory activity
drug accumulation and reversal of resistance in MDR cell lines (MDR cell lines): less cross-resistance

CCCCCCCCCCCCCC(=O)O[C@@H]1[C@@H](C)[C@@]2(O)[C@@H](C=C(CO)C[C@]3(O)C(=O)C(C)=C[C@@H]23)[C@@H]2C(C)(C)[C@]12OC(C)=O [phorbol myristate acetate]
phosphorylation of the P-glycoprotein (P-glycoprotein [12]): stimulate phosphorylation of the P-glycoprotein

CN(C)CCOc1ccc(/C(=C(/CCCl)c2ccccc2)c2ccccc2)cc1 [toremifene]
drug accumulation and reversal of resistance in MDR cell lines (MDR cell lines): can also modulate resistance of estrogen receptor-negative MDR cell lines

CN1CCN(CCCN2c3ccccc3Sc3ccc(C(F)(F)F)cc32)CC1 [trifluoperazine]
drug accumulation and reversal of resistance in MDR cell lines (MDR cell lines): increase drug accumulation and decrease resistance in MDR cell lines
tumor responses ([13]; 36 patients, oral, with constant infusion adriamycin): One complete response and six partial responses
dose-limiting toxicity ([13]; human, in vivo): Neurotoxicity of trifluoperazine to the extrapyramidal tracts was dose-limiting
plasma concentrations below those optimal for modulation of chemoresistance in vitro ([13]; human, in vivo): approximately 10 fold
phosphorylation of the P-glycoprotein (P-glycoprotein [12]): stimulate phosphorylation of the P-glycoprotein
PKC inhibition in vitro (PKC [14]): non-specifically inhibit PKC in vitro

COc1ccc(CCN(C)CCCC(C#N)(c2ccc(OC)c(OC)c2)C(C)C)cc1OC (stereo not drawn) [verapamil]
concentrations inhibiting the MDR phenotype (MDR cell lines): 2 to 10 µM
drug accumulation and reversal of resistance in MDR cell lines (MDR cell lines): more effective in reversal of resistance to anticancer drugs in other studies
drug accumulation and reversal of resistance in MDR cell lines (MDR cell lines; listed as Verapamil): increases in accumulation and decreases in resistance to natural product chemotherapeutic drugs
dose-limiting toxicity (patients [15]): dose-limiting cardiac toxicity
PKC inhibition in vitro (PKC [14]): non-specifically inhibit PKC in vitro

Cyclosporin A
inhibition of vincristine and vinblastine binding to P-glycoprotein (P-glycoprotein [16]): competitively inhibits vincristine and vinblastine binding to the P-glycoprotein
[3H] azidopine photoaffinity labeling of P-glycoprotein (P-glycoprotein [17]): inhibit

O-acetyl C9 -cyclosporin A [SDZ 33-243]
[3H] azidopine photoaffinity labeling of P-glycoprotein (P-glycoprotein [17]): inhibit
